The results in this text go back to patent publication US11535621B2, “Heterobicyclic amides as inhibitors of CD38” (Ribon Therapeutics, Inc., priority 2019, dated 2022).

Human CD38, sequence (P28907 whole entry): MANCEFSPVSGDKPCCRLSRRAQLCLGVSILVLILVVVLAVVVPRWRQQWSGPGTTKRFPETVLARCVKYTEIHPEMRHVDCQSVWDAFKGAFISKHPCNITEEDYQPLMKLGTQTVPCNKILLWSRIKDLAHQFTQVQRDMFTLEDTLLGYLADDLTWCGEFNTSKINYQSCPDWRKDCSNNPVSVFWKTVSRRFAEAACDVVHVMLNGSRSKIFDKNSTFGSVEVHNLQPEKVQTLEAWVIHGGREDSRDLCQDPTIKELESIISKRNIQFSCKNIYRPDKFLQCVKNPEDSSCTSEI

For the assay, the target named is Human CD38 (Homo sapiens (Human), UniProt P28907). In words: CD38 enzyme assay. The assay is classed as biochemical. The note with it: 2 nM CD38, NAD+ substrate, absorbance at 405 nm. Put shortly:
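IC50 values come from fitting % inhibition against compound concentration with a 4-parameter logistic, or a 3-parameter fit with top/bottom fixed at 100/0 or Hill at 1. Inhibition is scaled between DMSO wells and positive-control wells treated with a quinolinone CD38 inhibitor.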
Turning to `O=C(Nc1ccc(Cl)cn1)c1nc(-n2ccnc2)nc2cc[nH]c12` [Example 134], the half-inhibitory concentration (IC50) – broadly, the concentration that gives 50% inhibition – is < 10 nM. With `CC1(NC(=O)c2nc(-n3ccnc3)nc3cc[nH]c23)CCOCC1` [Example 135] the figure was 10 to 100 nM; with `CO[C@H]1CC[C@H](NC(=O)c2nc(-n3ccnc3)nc3ccsc23)CC1` [Example 136], < 10 nM; with `O=C(Nc1ccc(Cl)nc1)c1nc(-n2ccnc2)nc2cc[nH]c12` [Example 137], < 10 nM. In the case of `O=C(Nc1ccncc1)c1nc(-n2ccnc2)nc2cc[nH]c12` [Example 138], the IC50 was < 10 nM. `CC(C)(O)[C@H]1CC[C@H](NC(=O)c2nc(-n3ccnc3)nc3cc[nH]c23)CC1` [Example 139] gave an IC50 of 10 to 100 nM.

In the case of `O=C(Nc1ccnc(Cl)c1)c1nc(-n2ccnc2)nc2cc[nH]c12` [Example 140], the half-inhibitory concentration (IC50) was < 10 nM. Take `O=C(Nc1cncc(Cl)c1)c1nc(-n2ccnc2)nc2cc[nH]c12` [Example 141]: the IC50 is < 10 nM. For the molecule `O=C(Nc1cc(Cl)ccn1)c1nc(-n2ccnc2)nc2cc[nH]c12` [Example 142], the IC50 was < 10 nM. On to `O=C(NC1CCN(C(=O)CN2CCOCC2)CC1)c1nc(-n2ccnc2)nc2cc[nH]c12` [Example 143], for which the IC50 lay in the range of 10 to 100 nM.

For the molecule `O=C(Nc1cccc(Cl)n1)c1nc(-n2ccnc2)nc2cc[nH]c12` [Example 144], the IC50 is < 10 nM. With `O=C(Nc1ccc(OCCN2CCOCC2)nc1)c1nc(-n2ccnc2)nc2cc[nH]c12` [Example 145], the IC50 was < 10 nM. Molecule `CN(C)C(=O)CO[C@H]1CC[C@H](NC(=O)c2nc(-n3ccnc3)nc3cc[nH]c23)CC1` [Example 146] displayed an IC50 of 10 to 100 nM. As to `O=C(N[C@H]1CC[C@H](C(F)(F)F)CC1)c1nc(-n2ccnc2)nc2nc[nH]c12` [Example 147], the IC50 lay within 10 to 100 nM. In the case of `N#C[C@H]1CC[C@H](NC(=O)c2nc(-n3ccnc3)nc3cc[nH]c23)CC1` [Example 148], the IC50 was < 10 nM. Take `O=C(NC1CCC(F)(F)CC1)c1nc(-n2ccnc2)nc2ccsc12` [Example 149]: the IC50 is < 10 nM. Turning to `O=C(Nc1ccncn1)c1nc(-n2ccnc2)nc2cc[nH]c12` [Example 150], the IC50 was < 10 nM. In the case of `CN(C)CCOc1ccc(NC(=O)c2nc(-n3ccnc3)nc3ccsc23)cn1` [Example 151], the IC50 was < 10 nM.

Molecule `O=C(NC1CCC(F)(F)CC1)c1nc(-n2ccnc2)nc2nc[nH]c12` [Example 152] had an IC50 of 10 to 100 nM. Turning to `O=C(Nc1cncnc1)c1nc(-n2ccnc2)nc2cc[nH]c12` [Example 153], the IC50 was < 10 nM. On to `CN1CCN(c2ccc(NC(=O)c3nc(-n4ccnc4)nc4cc[nH]c34)cn2)CC1` [Example 154], for which the IC50 was < 10 nM.

In turn, `O=C(N[C@H]1CC[C@H](N2CCOCC2)CC1)c1nc(-n2ccnc2)nc2cc[nH]c12` [Example 155] displayed an IC50 of 10 to 100 nM. To `O=C(Nc1cnc(OCCN2CCOCC2)c(Cl)c1)c1nc(-n2ccnc2)nc2cc[nH]c12` [Example 156] belongs < 10 nM.

`O=C(NCCC1CCC(F)(F)CC1)c1nc(-n2ccnc2)nc2cc[nH]c12` [Example 157]: the half-maximal inhibitory concentration (IC50) fell in the range of 10 to 100 nM. With `O=C(Nc1ccc(N2CCC(N3CCOCC3)CC2)nc1)c1nc(-n2ccnc2)nc2cc[nH]c12` [Example 158] the figure was 10 to 100 nM.

As to `O=C(NC1CCC(F)(F)CC1)c1nc(-n2ccnc2)nc2cn[nH]c12` [Example 159], the IC50 is < 10 nM. Turning to `O=C(N[C@H]1CC[C@H](C(F)(F)F)CC1)c1nc(-n2ccnc2)nc2cn[nH]c12` [Example 160], the IC50 lay in the range of 10 to 100 nM.

For the molecule `O=C(N[C@H]1CC[C@@H](C(F)(F)F)CC1)c1nc(-n2ccnc2)nc2cn[nH]c12` [Example 161], the IC50 lay within 10 to 100 nM. Turning to `O=C(Nc1ccon1)c1nc(-n2ccnc2)nc2cc[nH]c12` [Example 162], the IC50 was < 10 nM. `COCCN1CCc2ccc(NC(=O)c3nc(-n4ccnc4)nc4cc[nH]c34)cc2C1` [Example 163]: the IC50 lay in the range of 10 to 100 nM. To `O=C(NC1(c2ccccc2)CC1)c1nc(-n2ccnc2)nc2cc[nH]c12` [Example 164] belongs 10 to 100 nM.
